Where a SMILES comes first, the peptide text is derived from it. [ ]: non-standard residue; d: D form. The star is where a group is joined. X1 = CC[N+](CC)(CC(=O)Nc1c(C)cccc1C)Cc1cccc(C(=O)*)c1; Aha = [N-]=[N+]=NCC[C@H](N)C(=O)O
Target: T1, MMP-8 (Homo sapiens, UniProt P22894)
T1 construct: purchased EMD Millipore Corporation (Billerica, MA)
Assay: MMP-8 cleavage of soluble PCL conjugates (HPLC decrease of main peak)
Assay type: biochemical
Settings: 900 ng/mL MMP-8, 60 min; p < 0.001, t-test
Method: Pro-MMPs (e.g., MMP-8, MMP-1, or MMP-9; used at 0.1 mg/mL and >100.0 mU/mg based on the manufacturer’s information) were activated with p-aminophenylmercuric acetate (APMA) (8). For that, a 10 mM stock solution of APMA was freshly prepared in 0.1 M NaOH and a 10:1 (v/v) ratio of the respective proenzyme and the APMA solution (MMP:APMA) was incubated for 3 h at 37 °C. The activity was confirmed using the MMP-8 detection kit (QuickZyme Biosciences, Leiden, the Netherlands). A stock solution (90 µg/mL) of the activated MMP was prepared (used for cleavage studies on the PCL or the fully assembled microparticle-PCL-tastant setup (sensor), in MMP-8 buffer (200 mM NaCl, 50 mM Tris-HCl, 5 mM CaCl2, 1 µM ZnCl2, 0.05% Brij 35 at pH 6.8–7.0). All MMP experiments are described in detail in the Supplementary Methods. […]
in water ( v/v)) and eluent B (0.1 % TFA in 2:3 water-acetonitrile (v/v)) and a gradient from 33 to 80% elu ent B within 30 minutes. UV absorption was r ead at λ = 280 nm or 220 nm. After freezing the samples at -80 °C, fr eeze- drying was performed on a Christ Alpha 1 -4 de vi ce (Martin Christ Gefriertrocknungs anlagen, Osterode am Harz, G e r ma n y) at a desublimers ’ te mperature of - 60 ° C, pressure of 1.030 mbar and processing temperature of 19 °C.
Pro-MMPs (e. g. MMP -8, MMP -1 or MMP-9; adapted to 0.1 mg/mL and > 100.0 mU/mg based on manufacturer information and when appropriate) were activated with APMA 8. For that, a 10 mM stock solution of APMA in 0.1 M NaOH was freshly prepared and a 10:1 (v/v) ratio of the r especti ve proenzyme and APMA solution (MMP:APMA) was incubated for 3 h at 37 °C. The activity was conf ir med using the MMP-8 detection kit (Q uic kZ ym e® Biosciences, Leiden, Netherlands). A stock solution (90 µg/mL) of the activated MMP was prepared (used for cleavage studies on the pr ot eas e-cleavable linker (PCL; e.g. Figure 2) or the fully assemb led microparticle -PCL- t ast ant setup (sensor; e.g. Figure 3) , in MMP -8 buffer (200 mM NaCl, 50 mM Tris-H Cl, 5 mM C aC l2, 1 µM ZnCl2, 0.05 % Brij35 at pH 6.8- 7.0). A ll MMP -8 exp eriments wer e performed as follo ws. 25 µg of the sensor ( see chap ter : Peptide-coupling to beads (Sensor)) in 100 µL MMP-buffer or 1 mg of FP LC -purified and lyophilized PCL as described dissolved 2 mL M MP -buffer resulting in a final concentration of 0.5 mg/ mL substrate was used. […]
Figure 2A , 3, 4B ). […]
(sensor) in co mpar ison to negative controls (the negative controls for the PCL an d sensor exper i men ts were b y incubation without MMP under otherwise identical conditions). The relative d ecreas e of the PCL’s ma in peak was char act er ized by HPLC (PCL) or of the sensor’s fluorescence b y FACS (sensor) in comparison to control. […]

T1 sequence (P22894 101-467): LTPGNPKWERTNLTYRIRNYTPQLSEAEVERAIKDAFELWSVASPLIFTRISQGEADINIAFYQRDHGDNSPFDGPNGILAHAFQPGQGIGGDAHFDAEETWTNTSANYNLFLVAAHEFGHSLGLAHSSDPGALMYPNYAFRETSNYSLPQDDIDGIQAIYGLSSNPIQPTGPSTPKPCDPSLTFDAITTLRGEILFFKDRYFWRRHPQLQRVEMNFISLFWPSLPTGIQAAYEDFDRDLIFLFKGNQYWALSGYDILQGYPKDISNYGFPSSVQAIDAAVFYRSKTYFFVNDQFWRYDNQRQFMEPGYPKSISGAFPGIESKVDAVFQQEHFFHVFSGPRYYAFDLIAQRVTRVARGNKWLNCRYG

Cleavage by MMP-8 compared with the PCL carboxyfluorescein conjugate (ID #1b): significantly better
Compound: CC[C@H](C)[C@H](NC(=O)CNC(=O)[C@H](CCC(N)=O)NC(=O)[C@@H]1CCCN1C(=O)CNC(=O)c1cccc(C[N+](CC)(CC)CC(=O)Nc2c(C)cccc2C)c1)C(=O)N[C@@H](C)C(=O)NCC(=O)N[C@@H](CCC(N)=O)C(=O)N[C@@H](CCN=[N+]=[N-])C(=O)N[C@@H](CCC(N)=O)C(=O)O [ID #1c] (X1-GPQGIAGQ[Aha]Q-OH)

— publication PMC5557808 (Nature Communications, 2017)
